Test results taken from the NIST ThermoML archive (doi:10.1021/acs.jced.8b00537).

What was measured:
[1] = xn = mol fraction of the nth substance listed; conditions: 100 kPa, Liquid, x2 = 0; for viscosity: Capillary tube (Ostwald / Ubbelohde) method; for speed of sound: Frequency=3 MHz, Single path-length method; for mass density: Vibrating tube method
[2] = 100 kPa, Liquid; for viscosity: Capillary tube (Ostwald / Ubbelohde) method; for speed of sound: Frequency=3 MHz, Single path-length method; for mass density: Vibrating tube method

CCCO [propan-1-ol] + O=S(=O)([N-]S(=O)(=O)C(F)(F)F)C(F)(F)F.On1cc[n+](O)c1
[1]
Conditions	mass density [kg/m3]	speed of sound [m/s]	viscosity [mPa·s]
293.15 K	804	1223.8	2.14
298.15 K	800	1206.5	1.897
303.15 K	796	1189.4	1.688
308.15 K	792	1172.4	1.506
313.15 K	787	1155.5	1.348
318.15 K	783	1138.7	1.211
323.15 K	779	1121.9	1.09
328.15 K	775	1105.2	0.985
333.15 K	770	1088.3	0.892
338.15 K	766	1071.5	0.81
343.15 K	762	1054.5	0.737

CCCO [propan-1-ol] + CC[S+](CC)CC.O=S(=O)([N-]S(=O)(=O)C(F)(F)F)C(F)(F)F
[1]
Conditions	mass density [kg/m3]	speed of sound [m/s]	viscosity [mPa·s]
293.15 K	804	1223.8	2.14
298.15 K	800	1206.5	1.897
303.15 K	796	1189.4	1.688
308.15 K	792	1172.4	1.506
313.15 K	787	1155.5	1.348
318.15 K	783	1138.7	1.211
323.15 K	779	1121.9	1.09
328.15 K	775	1105.2	0.985
333.15 K	770	1088.3	0.892
338.15 K	766	1071.5	0.81
343.15 K	762	1054.5	0.737

O=S(=O)([N-]S(=O)(=O)C(F)(F)F)C(F)(F)F.On1cc[n+](O)c1 [1,3-dihydroxyimidazolium bis(trifluoromethylsulfonyl)imide]
[2]
Conditions	mass density [kg/m3]	speed of sound [m/s]	viscosity [mPa·s]
293.15 K	1746.4	1208.2	238.6
298.15 K	1740.44	1196.6	171.83
303.15 K	1734.52	1185.2	127.52
308.15 K	1728.64	1174.1	96.92
313.15 K	1722.79	1163.1	75.56
318.15 K	1716.97	1152.3	59.8
323.15 K	1711.19	1141.6	48.29
328.15 K	1705.44	1131.1	39.57
333.15 K	1699.71	1120.7	32.88
338.15 K	1694.01	1110.4	27.69
343.15 K	1688.34	1100.2	23.59

C=CCn1cc[n+](C)c1.O=S(=O)([N-]S(=O)(=O)C(F)(F)F)C(F)(F)F
[2]
Conditions	mass density [kg/m3]	speed of sound [m/s]	viscosity [mPa·s]
278.15 K	1520.13	1286.6	–
283.15 K	1514.97	1274.9	–
288.15 K	1509.81	1263.1	–
293.15 K	1504.69	1251.6	41.83
298.15 K	–	1240.2	–
303.15 K	1494.52	1228.9	28.51
308.15 K	1489.48	1217.8	23.96
313.15 K	1484.45	1206.8	20.41
318.15 K	1479.44	1196	17.51
323.15 K	1474.45	1185.2	15.19
328.15 K	1469.5	1174.7	13.23
333.15 K	1464.56	1164.2	11.62
338.15 K	1459.65	1153.8	10.28
343.15 K	1454.75	1143.5	9.125

CCCO [propan-1-ol] + C=CCn1cc[n+](C)c1.O=S(=O)([N-]S(=O)(=O)C(F)(F)F)C(F)(F)F
[1]
Conditions	mass density [kg/m3]	speed of sound [m/s]	viscosity [mPa·s]
293.15 K	804	1223.8	2.14
298.15 K	–	1206.5	–
303.15 K	796	1189.4	1.688
308.15 K	792	1172.4	1.506
313.15 K	787	1155.5	1.348
318.15 K	783	1138.7	1.211
323.15 K	779	1121.9	1.09
328.15 K	775	1105.2	0.985
333.15 K	770	1088.3	0.892
338.15 K	766	1071.5	0.81
343.15 K	762	1054.5	0.737

CC[S+](CC)CC.O=S(=O)([N-]S(=O)(=O)C(F)(F)F)C(F)(F)F [triethylsulfonium bis((trifluoromethyl)sulfonyl)imide]
[2]
Conditions	mass density [kg/m3]	speed of sound [m/s]	viscosity [mPa·s]
278.15 K	1479.52	1284.8	–
283.15 K	1474.62	1274.1	–
288.15 K	1469.71	1263.3	–
293.15 K	1464.83	1252.9	39.64
298.15 K	1459.98	1242.5	32.43
303.15 K	1455.14	1232.4	26.92
308.15 K	1450.33	1222.4	22.64
313.15 K	1445.52	1212.7	19.24
318.15 K	1440.74	1203.1	16.53
323.15 K	1435.99	1193.7	14.31
328.15 K	1431.27	1184.7	12.5
333.15 K	1426.57	1175.9	10.99
338.15 K	1421.87	1166.8	9.726
343.15 K	1417.19	1157.6	8.659

CCCC[N+]1(C)CCCC1.O=S(=O)([N-]S(=O)(=O)C(F)(F)F)C(F)(F)F
[2]
Conditions	mass density [kg/m3]	speed of sound [m/s]	viscosity [mPa·s]
278.15 K	1412.33	1316.3	–
283.15 K	1407.79	1304.4	–
288.15 K	1403.28	1292.5	–
293.15 K	1398.78	1280.8	97.14
298.15 K	1394.32	1269.4	76.54
303.15 K	1389.87	1258.2	61.31
308.15 K	1385.44	1247.1	49.84
313.15 K	1381.05	1236.1	41.08
318.15 K	1376.66	1225.3	34.3
323.15 K	1372.3	1214.6	28.98
328.15 K	1367.94	1204.1	24.76
333.15 K	1363.6	1193.6	20.74
338.15 K	1359.28	1183.2	18.03
343.15 K	1354.98	1173	15.8

CCCO [propan-1-ol]
[2]
Conditions	mass density [kg/m3]	speed of sound [m/s]	viscosity [mPa·s]
278.15 K	815.52	1276	–
283.15 K	811.6	1258.7	–
288.15 K	807.63	1241.1	–
293.15 K	803.65	1223.8	2.14
298.15 K	799.65	1206.5	1.897
303.15 K	795.61	1189.4	1.688
308.15 K	791.54	1172.4	1.506
313.15 K	787.43	1155.5	1.348
318.15 K	783.27	1138.7	1.211
323.15 K	779.05	1121.9	1.09
328.15 K	774.79	1105.2	0.985
333.15 K	770.44	1088.3	0.892
338.15 K	766.03	1071.5	0.81
343.15 K	761.53	1054.5	0.737
